Reference: patent US12252524B2, “GIP/GLP1 co-agonist compounds” (Eli Lilly and Company, priority 2018, dated 2025)
Numbered stars: 1 amine (or outer) side, 2 acyl side, 3 side chain; on linkers, the order of the positions; unused ones are H or OH. Square brackets hold non-standard residues; d marks the D form. Side chains are listed from the residue outwards. Peptide text beside a SMILES is read from it. * marks the point of attachment. C20 diacid = O=C(O)CCCCCCCCCCCCCCCCCCC(=O)*; C18 diacid = O=C(O)CCCCCCCCCCCCCCCCC(=O)*; γGlu = O=C(O)[C@H](CCC(=O)[*:2])N[*:1]; αMeY = C[C@](N)(Cc1ccc(O)cc1)C(=O)O; αMeL = CC(C)C[C@](C)(N)C(=O)O; Orn = NCCC[C@H](N)C(=O)O; AEEA = NCCOCCOCC(=O)O; Aib = CC(C)(N)C(=O)O

Assays:
human GLP-1R [1] = molecular target: T1, human GLP-1R (Homo sapiens, UniProt P43220); assay: GLP-1R HEK293 cell membrane [35S]GTPγS binding assay; type: biochemical; design: expressed in transfected cells; host or cells: HEK293 cells expressing human GLP-1R; membranes; conditions: HEK293 cell membranes expressing human GLP-1R, [35S]GTPγS binding; read-out: hGLP1R GTPgS Rel EC50 nM (SEM, n)
T1 sequence (P43220 24-463): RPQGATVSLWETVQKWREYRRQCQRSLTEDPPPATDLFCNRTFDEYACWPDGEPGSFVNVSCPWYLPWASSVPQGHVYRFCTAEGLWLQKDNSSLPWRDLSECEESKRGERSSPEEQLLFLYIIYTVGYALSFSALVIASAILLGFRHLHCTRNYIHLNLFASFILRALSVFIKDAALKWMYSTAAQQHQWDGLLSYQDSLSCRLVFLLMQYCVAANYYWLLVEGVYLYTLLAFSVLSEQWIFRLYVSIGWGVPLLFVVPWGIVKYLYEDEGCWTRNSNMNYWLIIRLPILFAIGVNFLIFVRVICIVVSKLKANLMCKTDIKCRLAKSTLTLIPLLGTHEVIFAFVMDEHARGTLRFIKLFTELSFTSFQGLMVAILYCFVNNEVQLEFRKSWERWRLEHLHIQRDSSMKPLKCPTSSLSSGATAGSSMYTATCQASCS
Outline: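 Membranes from HEK293 cells expressing the receptor incubated with peptide and […] [35S]GTPγS in HEPES pH 7.4 buffer with NaCl, MgCl2, saponin and BSA, 30 min at room temperature. Gαs-bound label captured by anti-Gαs antibody/SPA beads and counted; EC50 from four-parameter logistic fit.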

[2] = molecular target: human GLP-1 receptor (GLP-1R) (Homo sapiens, UniProt P43220); assay: cAMP pharmacological functional assay in presence of casein, hGLP-1R; type: cell-based; conditions: HEK293 cells expressing hGLP-1R, 0.1% Casein, geometric mean; read-out: hGLP1R cAMP Rel EC50 nM (SEM, n)
Sequence of human GLP-1 receptor (GLP-1R) (P43220 24-463): as above

human GLP-1R [3] = molecular target: T1, human GLP-1R; assay: [125I]-GLP-1 binding (SPA), human GLP-1 receptor; design: expressed in transfected cells; crude membranes; conditions: read-out: hGLP1R Ki, (nM) (SEM, n)
Outline: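 Ki values are geometric means with SEM over independent replicates on different days, derived from IC50s fitted by four-parameter nonlinear regression. The assay used crude cell membranes in HEPES buffer, pH 7.4, containing CaCl2, MgCl2, bacitracin and TWEEN-20.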

human GLP-1R [4] = molecular target: T1, human GLP-1R; assay: GLP-1R CHO cell β-arrestin recruitment assay; type: cell-based; design: host or cells: CHO-K1 PathHunter cells, assay-ready frozen; conditions: for EC50: CHO-K1 cells; for hGLP1R B-Arrestin2 % Top: normalized to GLP-1 maximum control
Outline: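 PathHunter CHO-K1 cells with ProLink-tagged human GLP-1R and enzyme-acceptor-tagged β-arrestin-2 treated with serially diluted peptides in assay buffer containing 0.1% hydrolyzed casein, 90 min at 37 °C.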

human GIP receptor = molecular target: T2, human GIP receptor (Homo sapiens, UniProt P48546); assay: [125I]-GIP binding (SPA), human GIP receptor; conditions: read-out: hGIPR Ki, nM (SEM, n)
T2 construct: expressed in transfected cells; crude membranes
T2 sequence (P48546 22-466): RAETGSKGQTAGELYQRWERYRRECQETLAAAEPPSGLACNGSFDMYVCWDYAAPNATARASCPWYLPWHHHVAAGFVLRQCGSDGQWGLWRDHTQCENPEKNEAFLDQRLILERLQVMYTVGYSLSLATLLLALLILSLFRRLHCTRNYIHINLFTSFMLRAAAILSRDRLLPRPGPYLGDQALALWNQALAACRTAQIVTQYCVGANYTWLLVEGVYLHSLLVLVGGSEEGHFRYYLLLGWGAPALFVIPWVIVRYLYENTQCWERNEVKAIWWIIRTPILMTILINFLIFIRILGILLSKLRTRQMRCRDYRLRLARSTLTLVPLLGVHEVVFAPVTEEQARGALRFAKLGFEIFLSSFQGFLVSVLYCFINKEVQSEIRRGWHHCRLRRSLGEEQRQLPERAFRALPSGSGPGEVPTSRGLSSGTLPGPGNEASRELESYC

human Gcg receptor = molecular target: T3, human Gcg receptor (Homo sapiens, UniProt P47871); assay: [125I]-Glucagon binding (SPA), human Gcg receptor; conditions: read-out: hGLcgR Ki, nM (SEM, n)
T3 construct: expressed in transfected cells; crude membranes
T3 sequence (P47871 26-477): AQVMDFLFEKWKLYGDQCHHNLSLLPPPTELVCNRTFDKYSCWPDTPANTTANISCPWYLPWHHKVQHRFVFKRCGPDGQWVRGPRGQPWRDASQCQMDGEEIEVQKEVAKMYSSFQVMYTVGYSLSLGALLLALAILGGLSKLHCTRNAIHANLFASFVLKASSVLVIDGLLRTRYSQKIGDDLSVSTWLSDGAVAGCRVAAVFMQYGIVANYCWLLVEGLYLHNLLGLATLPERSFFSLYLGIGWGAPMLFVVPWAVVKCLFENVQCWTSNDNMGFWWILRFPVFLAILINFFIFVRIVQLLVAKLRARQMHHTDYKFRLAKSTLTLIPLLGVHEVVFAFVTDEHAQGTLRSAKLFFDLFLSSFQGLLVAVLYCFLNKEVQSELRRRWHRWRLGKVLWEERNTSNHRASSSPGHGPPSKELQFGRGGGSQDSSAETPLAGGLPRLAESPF
Outline: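 Cell pellets were lysed in hypotonic Tris buffer, pH 7.5, homogenized, and spun at low then high speed to give crude membranes. Ki was derived from the fitted IC50.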

[5] = molecular target: T4, gastric inhibitory peptide receptor (GIPR) (Homo sapiens, UniProt P48546); assay: cAMP pharmacological functional assay in presence of casein, hGIPR; type: cell-based; conditions: HEK293 cells expressing hGIPR, 0.1% Casein, geometric mean; read-out: hGIPR cAMP Rel EC50 nM (SEM, n)
T4 sequence (P48546 22-466): T2 sequence (P48546 22-466)

[6] = PathHunter β-arrestin-2 recruitment, 0.1% casein, read-out: hGLP1R B-Arrestin2 Rel EC50 uM (SEM, n)
[7] = 0.1% w/v hydrolyzed Casein, read-out: hGLP1R B-Arrestin2 Rel EC50

| Ki (human GLP-1R [3]) | Compound | EC50 (human GLP-1R [1]) | EC50 [2] | EC50 (human GLP-1R [4]; [6]) | hGLP1R B-Arrestin2 % Top (human GLP-1R [4]) | Ki (human GIP receptor) | Ki (human Gcg receptor) | EC50 [5] | EC50 (human GLP-1R [4]; [7]) |
| --- | --- | --- | --- | --- | --- | --- | --- | --- | --- |
| 2.01 nM | CC[C@H](C)[C@H](NC(=O)[C@H](CC(C)C)NC(=O)[C@H](Cc1ccc(O)cc1)NC(=O)[C@H](CCC(=O)O)NC(=O)[C@@H](NC(=O)[C@H](Cc1ccccc1)NC(=O)[C@H](C)NC(=O)C(C)(C)NC(=O)[C@H](CCC(N)=O)NC(=O)[C@H](C)NC(=O)[C@H](CCCCNC(=O)COCCOCCNC(=O)COCCOCCNC(=O)CC[C@H](NC(=O)CCCCCCCCCCCCCCCCC(=O)O)C(=O)O)NC(=O)[C@H](CCCCN)NC(=O)[C@H](CC(=O)O)NC(=O)[C@H](CC(C)C)NC(=O)[C@H](CC(C)C)NC(=O)[C@@H](NC(=O)[C@H](CO)NC(=O)[C@H](Cc1ccc(O)cc1)NC(=O)[C@H](CC(=O)O)NC(=O)[C@H](CO)NC(=O)[C@@H](NC(=O)[C@H](Cc1ccccc1)NC(=O)[C@@H](NC(=O)CNC(=O)[C@H](CCC(=O)O)NC(=O)C(C)(C)NC(=O)[C@@H](N)Cc1ccc(O)cc1)[C@@H](C)O)[C@@H](C)O)[C@@H](C)CC)[C@@H](C)CC)C(=O)N[C@@H](CCC(=O)O)C(=O)NCC(=O)NCC(=O)N1CCC[C@H]1C(=O)N[C@@H](CO)C(=O)N[C@@H](CO)C(=O)NCC(N)=O [Example 266] (H-Y[Aib]EGTFTSDYSILLDKK([AEEA-AEEA-γGlu-C18 diacid])AQ[Aib]AFIEYLIEGGPSSG-NH2) | 0.865 nM | 0.0883 nM | 0.016 µM | 17.1% | 0.0666 nM | 193 nM | 0.0442 nM |  |
|  | CC[C@H](C)[C@H](NC(=O)[C@H](CC(C)C)NC(=O)[C@H](Cc1ccc(O)cc1)NC(=O)[C@H](CCC(=O)O)NC(=O)[C@@H](NC(=O)[C@H](Cc1ccccc1)NC(=O)[C@H](C)NC(=O)C(C)(C)NC(=O)[C@H](CCC(N)=O)NC(=O)[C@H](C)NC(=O)[C@H](CCCCNC(=O)COCCOCCNC(=O)COCCOCCNC(=O)CC[C@H](NC(=O)CCCCCCCCCCCCCCCCCCC(=O)O)C(=O)O)NC(=O)[C@H](CCC(=O)O)NC(=O)[C@H](CC(=O)O)NC(=O)[C@H](CC(C)C)NC(=O)[C@H](CC(C)C)NC(=O)[C@@H](NC(=O)[C@H](CO)NC(=O)[C@H](Cc1ccc(O)cc1)NC(=O)[C@H](CC(=O)O)NC(=O)[C@H](CO)NC(=O)[C@@H](NC(=O)[C@H](Cc1ccccc1)NC(=O)[C@@H](NC(=O)CNC(=O)[C@H](CCC(=O)O)NC(=O)C(C)(C)NC(=O)[C@@H](N)Cc1ccc(O)cc1)[C@@H](C)O)[C@@H](C)O)[C@@H](C)CC)[C@@H](C)CC)C(=O)N[C@@H](C)C(=O)NCC(=O)NCC(=O)N1CCC[C@H]1C(=O)N[C@@H](CO)C(=O)N[C@@H](CO)C(=O)NCC(=O)N[C@@H](C)C(=O)N1CCC[C@H]1C(=O)N1CCC[C@H]1C(=O)N1CCC[C@H]1C(=O)N[C@@H](CO)C(N)=O [Example 330] (H-Y[Aib]EGTFTSDYSILLDEK([AEEA-AEEA-γGlu-C20 diacid])AQ[Aib]AFIEYLIAGGPSSGAPPPS-NH2) | 1.05 nM | 0.199 nM | > 10.9 µM |  | 0.114 nM | > 1050 nM | 0.0919 nM | > 10.9 µM |
|  | CC[C@H](C)[C@H](NC(=O)[C@H](CC(C)C)NC(=O)[C@H](Cc1ccc(O)cc1)NC(=O)[C@H](CCC(=O)O)NC(=O)[C@@H](NC(=O)[C@H](Cc1ccccc1)NC(=O)[C@H](CCC(=O)O)NC(=O)C(C)(C)NC(=O)[C@H](CCC(N)=O)NC(=O)[C@H](C)NC(=O)[C@H](CCCCNC(=O)COCCOCCNC(=O)CC[C@H](NC(=O)CCCCCCCCCCCCCCCCCCC(=O)O)C(=O)O)NC(=O)[C@H](CCCCN)NC(=O)[C@H](CC(=O)O)NC(=O)[C@H](CC(C)C)NC(=O)[C@](C)(CC(C)C)NC(=O)[C@@H](NC(=O)[C@H](CO)NC(=O)[C@H](Cc1ccc(O)cc1)NC(=O)[C@H](CC(=O)O)NC(=O)[C@H](CO)NC(=O)[C@@H](NC(=O)[C@H](Cc1ccccc1)NC(=O)[C@@H](NC(=O)CNC(=O)[C@H](CCC(=O)O)NC(=O)C(C)(C)NC(=O)[C@H](N)Cc1ccc(O)cc1)[C@@H](C)O)[C@@H](C)O)[C@@H](C)CC)[C@@H](C)CC)C(=O)N[C@@H](C)C(=O)NCC(=O)NCC(=O)N1CCC[C@H]1C(=O)N[C@@H](CO)C(=O)N[C@@H](CO)C(=O)NCC(=O)N[C@@H](C)C(=O)N1CCC[C@H]1C(=O)N1CCC[C@H]1C(=O)N1CCC[C@H]1C(=O)N[C@@H](CO)C(N)=O [Example 378] (H-[dY][Aib]EGTFTSDYSI[αMeL]LDKK([AEEA-γGlu-C20 diacid])AQ[Aib]EFIEYLIAGGPSSGAPPPS-NH2) | 0.359 nM | 0.191 nM | > 10.2 µM |  |  |  | 0.067 nM | > 10.2 µM |
|  | CC[C@H](C)[C@H](NC(=O)[C@H](CC(C)C)NC(=O)[C@](C)(Cc1ccc(O)cc1)NC(=O)[C@H](CCC(=O)O)NC(=O)[C@@H](NC(=O)[C@H](Cc1ccccc1)NC(=O)[C@H](CCC(=O)O)NC(=O)C(C)(C)NC(=O)[C@H](CCC(N)=O)NC(=O)[C@H](C)NC(=O)[C@H](CCCCNC(=O)COCCOCCNC(=O)COCCOCCNC(=O)CC[C@H](NC(=O)CCCCCCCCCCCCCCCCCCC(=O)O)C(=O)O)NC(=O)[C@H](CCCCN)NC(=O)[C@H](CC(=O)O)NC(=O)[C@H](CC(C)C)NC(=O)[C@](C)(CC(C)C)NC(=O)[C@@H](NC(=O)[C@H](CO)NC(=O)[C@H](Cc1ccc(O)cc1)NC(=O)[C@H](CC(=O)O)NC(=O)[C@H](CO)NC(=O)[C@@H](NC(=O)[C@H](Cc1ccccc1)NC(=O)[C@@H](NC(=O)CNC(=O)[C@H](CCC(=O)O)NC(=O)C(C)(C)NC(=O)[C@H](N)Cc1ccc(O)cc1)[C@@H](C)O)[C@@H](C)O)[C@@H](C)CC)[C@@H](C)CC)C(=O)N[C@@H](CCC(=O)O)C(=O)NCC(=O)NCC(=O)N1CCC[C@H]1C(=O)N[C@@H](CO)C(=O)N[C@@H](CO)C(=O)NCC(=O)N[C@@H](C)C(=O)N1CCC[C@H]1C(=O)N1CCC[C@H]1C(=O)N1CCC[C@H]1C(=O)N[C@@H](CO)C(N)=O [Example 379] (H-[dY][Aib]EGTFTSDYSI[αMeL]LDKK([AEEA-AEEA-γGlu-C20 diacid])AQ[Aib]EFIE[αMeY]LIEGGPSSGAPPPS-NH2) | 0.239 nM | 0.238 nM | 0.0181 µM | 31.9% |  |  | 0.079 nM |  |
|  | CC[C@H](C)[C@H](NC(=O)[C@H](CC(C)C)NC(=O)[C@](C)(Cc1ccc(O)cc1)NC(=O)[C@H](CCC(=O)O)NC(=O)[C@@H](NC(=O)[C@H](Cc1ccccc1)NC(=O)[C@H](CCC(=O)O)NC(=O)C(C)(C)NC(=O)[C@H](CCC(N)=O)NC(=O)[C@H](C)NC(=O)[C@H](CCCCNC(=O)COCCOCCNC(=O)COCCOCCNC(=O)CC[C@H](NC(=O)CCCCCCCCCCCCCCCCCCC(=O)O)C(=O)O)NC(=O)[C@H](CCCN)NC(=O)[C@H](CC(=O)O)NC(=O)[C@H](CC(C)C)NC(=O)[C@](C)(CC(C)C)NC(=O)[C@@H](NC(=O)[C@H](CO)NC(=O)[C@H](Cc1ccc(O)cc1)NC(=O)[C@H](CC(=O)O)NC(=O)[C@H](CO)NC(=O)[C@@H](NC(=O)[C@H](Cc1ccccc1)NC(=O)[C@@H](NC(=O)CNC(=O)[C@H](CCC(=O)O)NC(=O)C(C)(C)NC(=O)[C@H](N)Cc1ccc(O)cc1)[C@@H](C)O)[C@@H](C)O)[C@@H](C)CC)[C@@H](C)CC)C(=O)N[C@@H](CCC(=O)O)C(=O)NCC(=O)NCC(=O)N1CCC[C@H]1C(=O)N[C@@H](CO)C(=O)N[C@@H](CO)C(=O)NCC(=O)N[C@@H](C)C(=O)N1CCC[C@H]1C(=O)N1CCC[C@H]1C(=O)N1CCC[C@H]1C(=O)N[C@@H](CO)C(N)=O [Example 380] (H-[dY][Aib]EGTFTSDYSI[αMeL]LD[Orn]K([AEEA-AEEA-γGlu-C20 diacid])AQ[Aib]EFIE[αMeY]LIEGGPSSGAPPPS-NH2) | 0.188 nM | 0.236 nM | 0.0137 µM | 35% |  |  | 0.142 nM |  |
